Reference: patent publication US9884812B2, “Use of DDX3X inhibitors for the treatment of pneumovirus infections” (priority 2014, dated 2018)
Read-outs that look alike come from different tables or passages of the source.

Columns and labels:
[1] = Solubility in cell medium; type: physicochemical; details: solution of ligand in DMSO (20 mM) diluted in cell media to 100 μM; scale from 'very poor' (almost insoluble) to 'very good' (freely soluble over extended periods at 4° C.)
[2] = system: HEp2 or BSC1 cells; assay: Toxicity to cells in the TCID50 screen (mock control); type: cell-based
Experimental: This method provides a rapid approach to initially screen compounds and was developed as an increased number of compounds were synthesised. […] Virus was then added over 5 different half log dilutions starting at a multiplicity of infection of 0.02 plus mock control. Three dilutions of compound plus a DMSO control were screened per plate. […] Identical plate repeats for each compound dilution were fixed in subsequent days as indicated.

[3] = cellular RSV TCID50 assay tables

SMILES | Solubility in cell medium [1] | Toxicity [2, 3] | Toxicity [2]
N#Cc1ccc(NC(=O)Nc2ccccn2)cc1 [Compound 8, 3-(4-cyanophenyl)-1-(pyridin-2-yl)urea] | moderate | toxic at 100, 32, 10 μM | –
Cc1ccccc1NC(=O)Nc1cccnc1 [Compound 10, 1-(2-methylphenyl)-3-(pyridin-3-yl)urea] | moderate | low | –
N#Cc1cccc(NC(=O)Nc2ccccn2)c1 [Compound 11, 3-(3-cyanophenyl)-1-(pyridin-2-yl)urea] | moderate | toxic at 100 μM | –
N#Cc1cccc(NC(=O)Nc2ncccn2)c1 [Compound 12, 3-(3-cyanophenyl)-1-(pyrimidin-2-yl)urea] | poor | toxic at 100 μM | –
COc1cccc(NC(=O)Nc2ccccc2C)c1 [Compound 13, 3-(3-methoxyphenyl)-1-(2-methylphenyl)urea] | good | toxic at 100 μM | –
Cc1ccccc1NC(=O)Nc1cccc(Br)c1 [Compound 16, 1-(3-bromophenyl)-3-(2-methylphenyl)urea] | moderate | toxic at 100 μM | –
Cc1ccccc1NC(=S)Nc1cccc([N+](=O)[O-])c1 [Compound 17, 3-(2-methylphenyl)-1-(3-nitrophenyl)thiourea] | good | toxic at 100 μM | –
Cc1ccccc1NC(=S)Nc1cccc(C#N)c1 [Compound 18, 1-(3-cyanophenyl)-3-(2-methylphenyl)thiourea] | very good | low | –
CC1CCCCC1NC(=O)Nc1cccc([N+](=O)[O-])c1 (stereo not shown) [Compound 21, 3-(2-methylcyclohexyl)-1-(3-nitrophenyl)urea] | moderate | toxic at 100 μM | –
O=C(Nc1cccc(NC(=O)Nc2cccc([N+](=O)[O-])c2)c1)Nc1cccc([N+](=O)[O-])c1 [Compound 31, 1,1′-(1,3-phenylene)bis(3-(3-nitrophenyl)urea)] | very poor | – | toxic at 100 μM
CSc1cccc(NC(=O)Nc2cccc(NC(=O)Nc3cccc(SC)c3)c2)c1 [Compound 33, 1,1′-(1,3-phenylene)bis(3-(3-(methylthio)phenyl)urea)] | poor | toxic at 100 μM | –
COc1cccc(NC(=O)Nc2cccc(NC(=O)Nc3cccc(OC)c3)c2)c1 [Compound 34, 1,1′-(1,3-phenylene)bis(3-(3-methoxyphenyl)urea)] | poor | toxic at 100 μM | –
Cc1ccccc1NC(=O)NCCCOCCOCCOCCCNC(=O)Nc1ccccc1C [Compound 38, 1-(2-methylphenyl)-3-(3-{2-[2-(3-{[(2-methylphenyl)carbamoyl]-amino}propoxy)ethoxy]ethoxy}propyl)urea] | good | toxic at 50 μM | –

Second part, led by results:

Solubility in cell medium [1] | SMILES | Toxicity [2, 3] | Toxicity [2]
good | CC(=O)c1cccc(NC(=O)Nc2ccccc2C)c1 [Compound 2, 1-(3-acetylphenyl)-3-(2-methylphenyl)urea] | very low | –
good | Cc1ccccc1NC(=O)Nc1cccc([S+](C)[O-])c1 (stereo not shown) [Compound 5, 3-(3-methanesulfinylphenyl)-1-(2-methylphenyl)urea] | very low | –
moderate | N#Cc1cccc(NC(=O)Nc2cccnc2)c1 [Compound 7, 3-(3-cyanophenyl)-1-(pyridin-3-yl)urea] | low | –
good | Cc1ccccc1NC(=O)Nc1ccccn1 [Compound 9, 1-(2-methylphenyl)-3-(pyridin-2-yl)urea] | low | –
good | CSc1ccc(NC(=O)Nc2ccccc2C)cc1 [Compound 14, 3-(2-methylphenyl)-1-[4-(methylsulfanyl)phenyl]urea] | low | –
good | COc1ccc(NC(=O)Nc2ccccc2C)cc1 [Compound 15, 1-(4-methoxyphenyl)-3-(2-methylphenyl)urea] | low | –
moderate | CC1CCCCC1NC(=O)Nc1ccc(C#N)cc1 (stereo not shown) [Compound 22, 1-(4-cyanophenyl)-3-(2-methylcyclohexyl)urea] | low | –
moderate | CC1CCCCC1NC(=O)Nc1cccc(C#N)c1 (stereo not shown) [Compound 23, 1-(3-cyanophenyl)-3-(2-methylcyclohexyl)urea] | low | –
good | CCCCCCCCNC(=O)Nc1ccc(C#N)cc1 [Compound 24, 1-(4-cyanophenyl)-3-octylurea] | low | –
moderate | CCCCCCCCNC(=O)Nc1ccccc1C [Compound 25, 1-(2-methylphenyl)-3-octylurea] | low | –
good | Cc1ccccc1NC(=O)NCCN(C)C [Compound 26, 3-[2-(dimethylamino)ethyl]1-(2-methylphenyl)urea] | low | –
good | Cc1ccccc1NC(=O)N1CCOCC1 [Compound 27, N-(2-methylphenyl)morpholine-4-carboxamide] | low | –
good | CCCCCCCCNC(=S)Nc1ccccc1C [Compound 28, 1-(2-methylphenyl)-3-octylthiourea] | low | –
good | Cc1ccccc1NC(=S)NCCN(C)C [Compound 29, 3-[2-(dimethylamino)ethyl]-1-(2-methylphenyl)thiourea] | low | –
very good | Cc1ccccc1NC(=S)N1CCOCC1 [Compound 30, N-(2-methylphenyl)morpholine-4-carbothioamide] | low | –
Moderate at 100 μM | Cc1ccccc1NC(=O)Nc1ccc(Br)cc1 [Compound 41, 1-(4-bromophenyl)-3-(o-tolyl)urea] | Low | –
